Patent US8178506B2, “Oligomeric compounds and compositions for use in modulation of small non-coding RNAs” (Regulus Therapeutics Inc., priority 2003, dated 2012)
Values joined by “and” are separate entries in the source; they are usually repeats but may differ in a detail not shown here. Equal values may be shown once. In the oligonucleotide strings, read from the 5' end, every base follows the letter of its sugar. An asterisk marks phosphorothioate; unmarked linkages are phosphodiester. Other units and linkages are bracketed, terminal groups are in braces. A string of capitals states the bases alone. e = 2'-O-(2-methoxyethyl) (MOE); [5mC] = 5-methylcytosine; d = 2'-deoxy (DNA)

Key:
HeLa cells = assay: Cell cycle assay in HeLa cells; assay type: cell-based, human; conditions: HeLa cells; for % cells aneuploid / % cells in cell cycle phase G1 / % cells in cell cycle phase G2/M / % cells in cell cycle phase S / % cells in cell cycle phase subG1: 24 hours, relative to untreated control (UTC = 100)
T47D cells = assay: Caspase-3 activity assay (apoptosis) in T47D cells; conditions: for Fold Increase over UTC (caspase activity) / apoptosis in T47D cells: 200 nM; for Fold Increase over UTC (caspase activity) / Fold Increase over UTC (caspase-3 activity, apoptosis): 48 hours; for Fold Increase over UTC (caspase activity): relative to untreated control; for Fold Increase over UTC (caspase-3 activity, apoptosis): 200 nM oligomeric compound; for apoptosis in T47D cells: caspase assay, conclusion from Tables 9-12
adipocytes = assay: Triglyceride accumulation assay in adipocytes; assay type: cell-based, human; conditions: for TG (triglyceride accumulation): differentiating adipocytes transfected with oligomeric compound
aP2 = aP2 mRNA expression in adipocytes (real-time PCR); assay type: cell-based, human; conditions: differentiating adipocytes transfected with oligomeric compound
HSL = HSL mRNA expression in adipocytes (real-time PCR); assay type: cell-based, human; conditions: differentiating adipocytes transfected with oligomeric compound
Glut4 = Glut4 mRNA expression in adipocytes (real-time PCR); assay type: cell-based, human; conditions: differentiating adipocytes transfected with oligomeric compound
PPARγ = PPARγ mRNA expression in adipocytes (real-time PCR); assay type: cell-based, human; conditions: differentiating adipocytes transfected with oligomeric compound
[1] = tested on: BJ, B16-F10, T47D, T47Dp53 and HeLa cells; assay: Cell cycle assay (propidium iodide flow cytometry), cell line panel; assay type: cell-based; conditions: for percentage of aneuploid cells: 150 nM, 72 hours (Table 29)
[2] = 150 nM oligomeric compound, 48 hours after treatment, relative to untreated control (UTC=100)
[3] = T47D cells, experiment of Table 10
[4] = 25 nM, 48 hours, percentage of cells in phase, average of replicates
[5] = 50 nM, 48 hours, percentage of cells in phase, average of replicates
[6] = 100 nM, 48 hours, percentage of cells in phase, average of replicates
[7] = 150 nM, 48 hours, percentage of cells in phase, average of replicates
[8] = 150 nM oligomeric compound, 4.5 μg/ml LIPOFECTIN, after 72 hours, propidium iodide flow cytometry

328647 (eG*eG*eA*eG*eT*dA*dG*dA*dT*dG*dA*dT*dG*dG*dT*eT*eA*eG*e[5mC]*e[5mC]; antisense) [compound 328647]
% cells aneuploid (HeLa cells; 150 nM oligomeric compound): 140% | % cells in cell cycle phase G1 (HeLa cells; 150 nM oligomeric compound): 101% | % cells in cell cycle phase G2/M (HeLa cells; 150 nM oligomeric compound): 119% | % cells in cell cycle phase S (HeLa cells; 150 nM oligomeric compound): 92% | % cells in cell cycle phase subG1 (HeLa cells; 150 nM oligomeric compound): 140% | % cells in cell cycle phase: G1 (HeLa cells; [2]): 69% | % cells in cell cycle phase: G2/M (HeLa cells; [2]): 118% | % cells in cell cycle phase: S (HeLa cells; [2]): 153% | % cells in cell cycle phase: aneuploid (HeLa cells; [2]): 136% | % cells in cell cycle phase: subG1 (HeLa cells; [2]): 589% | Fold Increase over UTC (caspase activity) (T47D cells; T47D cells): 0.9

GCTGACCTTTTTGCTTCTCA (sugars from the 5' end e5 d10 e5, all phosphorothioate, methylation of C not given here) [ISIS 138648]
triglyceride accumulation (adipocytes; preadipocytes, 250 nM, day nine): decreased triglyceride production | increase in caspase activity (T47D cells; T47D cells): 41%

328651 (eG*eG*eT*eA*eA*dG*dA*dG*dG*dA*dT*dG*d[5mC]*dG*d[5mC]*eT*eG*e[5mC]*eT*e[5mC]; antisense) [compound 328651]
TG (triglyceride accumulation) (adipocytes): 93 percentage of untreated control (UTC) | AP2 mRNA (aP2): 84 percentage of untreated control (UTC) | HSL mRNA (HSL): 109 percentage of untreated control (UTC) | GLUT4 mRNA (Glut4): 78 percentage of untreated control (UTC) | PPAR gamma mRNA (PPARγ): 106 percentage of untreated control (UTC) | Fold Increase over UTC (caspase-3 activity, apoptosis) (T47D cells; [3]): 0.9 fold

328374 (eA*eG*e[5mC]*eT*eT*dT*dA*dG*d[5mC]*dT*dG*dG*dG*dT*d[5mC]*eA*eG*eG*eA*e[5mC]; antisense) [compound 328374]
% cells aneuploid (HeLa cells; 150 nM oligomeric compound): 97% | % cells in cell cycle phase G1 (HeLa cells; 150 nM oligomeric compound): 54% | % cells in cell cycle phase G2/M (HeLa cells; 150 nM oligomeric compound): 162% | % cells in cell cycle phase S (HeLa cells; 150 nM oligomeric compound): 115% | % cells in cell cycle phase subG1 (HeLa cells; 150 nM oligomeric compound): 198% | % cells in cell cycle phase: G1 (HeLa cells; [2]): 65% | % cells in cell cycle phase: G2/M (HeLa cells; [2]): 143% | % cells in cell cycle phase: S (HeLa cells; [2]): 157% | % cells in cell cycle phase: aneuploid (HeLa cells; [2]): 71% | % cells in cell cycle phase: subG1 (HeLa cells; [2]): 787% | Fold Increase over UTC (caspase-3 activity, apoptosis) (T47D cells; T47D cells, experiment of Table 11): 1.1 fold

328417 (antisense eT*eA*eA*eT*eT*dT*dT*dA*dG*dA*dA*dT*d[5mC]*dT*dT*eA*eA*e[5mC]*eG*e[5mC]) [compound 328417]
TG (triglyceride accumulation) (adipocytes): 83 percentage of untreated control (UTC) | AP2 mRNA (aP2): 87 percentage of untreated control (UTC) | HSL mRNA (HSL): 98 percentage of untreated control (UTC) | GLUT4 mRNA (Glut4): 68 percentage of untreated control (UTC) | PPAR gamma mRNA (PPARγ): 94 percentage of untreated control (UTC) | Fold Increase over UTC (caspase activity) (T47D cells; T47D cells): 1.0

ISIS 328394: oligomeric compound targeting mir-181a (eG*eT*eT*eT*eT*dT*dT*d[5mC]*dA*dA*dA*dT*d[5mC]*d[5mC]*d[5mC]*eA*eA*eA*e[5mC]*eT)
percentage of aneuploid cells [1]: higher than average percentages of aneuploid cells | apoptosis in T47D cells (T47D cells): prevent or have a protective effect from apoptosis

ISIS 328396: oligomeric compound targeting mir-205 (e[5mC]*eT*eG*eG*eT*dT*dG*dG*dG*dT*dA*dT*dG*dA*dG*eA*e[5mC]*eA*eG*eA)
percentage of aneuploid cells [1]: higher than average percentages of aneuploid cells | apoptosis in T47D cells (T47D cells): prevent or have a protective effect from apoptosis

328383 (eA*eG*eA*eG*eG*dG*dG*dA*dG*dA*d[5mC]*dG*dA*dG*dA*eG*e[5mC]*eA*e[5mC]*eT) [compound 328383]
% cells in cell cycle phase: G2/M (HeLa cells; 25 nM, 48 hours): 18% | % cells in cell cycle phase: G1 (HeLa cells; [4]): 57% | % cells in cell cycle phase: S (HeLa cells; [4]): 25% | % cells in cell cycle phase: aneuploid (HeLa cells; [4]): 12% | % cells in cell cycle phase: subG1 (HeLa cells; [4]): 1.9% | % cells in cell cycle phase: G2/M (HeLa cells; 50 nM, 48 hours): 18% | % cells in cell cycle phase: G1 (HeLa cells; [5]): 56% | % cells in cell cycle phase: S (HeLa cells; [5]): 25% | % cells in cell cycle phase: aneuploid (HeLa cells; [5]): 13% | % cells in cell cycle phase: subG1 (HeLa cells; [5]): 1.3% | % cells in cell cycle phase: G2/M (HeLa cells; 100 nM, 48 hours): 30% | % cells in cell cycle phase: G1 (HeLa cells; [6]): 36% | % cells in cell cycle phase: S (HeLa cells; [6]): 34% | % cells in cell cycle phase: aneuploid (HeLa cells; [6]): 10% | % cells in cell cycle phase: subG1 (HeLa cells; [6]): 9.3% | % cells aneuploid (HeLa cells; 150 nM oligomeric compound): 92% and 98% | % cells in cell cycle phase G1 (HeLa cells; 150 nM oligomeric compound): 55% and 63% | % cells in cell cycle phase G2/M (HeLa cells; 150 nM oligomeric compound): 222% and 183% | % cells in cell cycle phase S (HeLa cells; 150 nM oligomeric compound): 82% and 97% | % cells in cell cycle phase subG1 (HeLa cells; 150 nM oligomeric compound): 314% and 289% | % cells in cell cycle phase: G1 (HeLa cells; [2]): 53% and 54% | % cells in cell cycle phase: G2/M (HeLa cells; [2]): 124% and 150% | % cells in cell cycle phase: S (HeLa cells; [2]): 217% and 178% | % cells in cell cycle phase: aneuploid (HeLa cells; [2]): 90% | % cells in cell cycle phase: G2/M (HeLa cells; 150 nM, 48 hours): 34% | % cells in cell cycle phase: G1 (HeLa cells; [7]): 29% | % cells in cell cycle phase: S (HeLa cells; [7]): 36% | % cells in cell cycle phase: aneuploid (HeLa cells; [7]): 11% | % cells in cell cycle phase: subG1 (HeLa cells; [7]): 11.8% | Fold Increase over UTC (caspase-3 activity, apoptosis) (T47D cells; [3]): 1.2 fold

328436 (antisense eG*eA*eA*eA*eA*dT*dT*dA*dT*dA*dT*dT*dG*dA*d[5mC]*eT*e[5mC]*eT*eG*eA) [compound 328436]
G1 (percentage of cells in phase of the cell cycle) [1, 8]: 59.2% | G2/M (percentage of cells in phase of the cell cycle) [1, 8]: 13.9% | S (percentage of cells in phase of the cell cycle) [1, 8]: 26.9% | SubG1 (percentage of cells in phase of the cell cycle) [1, 8]: 3.5% | aneuploid (percentage of cells) [1, 8]: 17.4% | Fold Increase over UTC (caspase-3 activity, apoptosis) (T47D cells; [3]): 0.9 fold
